# From US10611730B2, “Benzimidazolone and benzothiazolone compounds and their use as AMPA receptor modulators” (Janssen Pharmaceutica NV, priority 2015, dated 2020)
# Target: TARP γ8 dependent AMPA receptor (GluA1o-g8 fusion channel) (Homo sapiens (Human), UniProt P42261+Q8WXS5)
# Test: Calcium flux assay (FLIPR), HEK293 cells expressing GRIA1o-CACNG8 fusion
# Format: cell-based
# Conditions: inhibition of calcium flux after 15 μM glutamate, read-out: GluR1-γ8 pIC50 (converted)
# In short: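 Stable HEK293 clone expressing GluA1o-γ8 fusion (1:1 stoichiometry), loaded with Calcium-5/6 dye plus test compound; glutamate-evoked fluorescence normalized to control wells. Concentration-response fitted to four-parameter logistic, midpoint taken as inhibitory potency.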
# Chain of TARP γ8 dependent AMPA receptor (GluA1o-g8 fusion channel) (P42261 other isoform, or with tags, fused parts or gaps): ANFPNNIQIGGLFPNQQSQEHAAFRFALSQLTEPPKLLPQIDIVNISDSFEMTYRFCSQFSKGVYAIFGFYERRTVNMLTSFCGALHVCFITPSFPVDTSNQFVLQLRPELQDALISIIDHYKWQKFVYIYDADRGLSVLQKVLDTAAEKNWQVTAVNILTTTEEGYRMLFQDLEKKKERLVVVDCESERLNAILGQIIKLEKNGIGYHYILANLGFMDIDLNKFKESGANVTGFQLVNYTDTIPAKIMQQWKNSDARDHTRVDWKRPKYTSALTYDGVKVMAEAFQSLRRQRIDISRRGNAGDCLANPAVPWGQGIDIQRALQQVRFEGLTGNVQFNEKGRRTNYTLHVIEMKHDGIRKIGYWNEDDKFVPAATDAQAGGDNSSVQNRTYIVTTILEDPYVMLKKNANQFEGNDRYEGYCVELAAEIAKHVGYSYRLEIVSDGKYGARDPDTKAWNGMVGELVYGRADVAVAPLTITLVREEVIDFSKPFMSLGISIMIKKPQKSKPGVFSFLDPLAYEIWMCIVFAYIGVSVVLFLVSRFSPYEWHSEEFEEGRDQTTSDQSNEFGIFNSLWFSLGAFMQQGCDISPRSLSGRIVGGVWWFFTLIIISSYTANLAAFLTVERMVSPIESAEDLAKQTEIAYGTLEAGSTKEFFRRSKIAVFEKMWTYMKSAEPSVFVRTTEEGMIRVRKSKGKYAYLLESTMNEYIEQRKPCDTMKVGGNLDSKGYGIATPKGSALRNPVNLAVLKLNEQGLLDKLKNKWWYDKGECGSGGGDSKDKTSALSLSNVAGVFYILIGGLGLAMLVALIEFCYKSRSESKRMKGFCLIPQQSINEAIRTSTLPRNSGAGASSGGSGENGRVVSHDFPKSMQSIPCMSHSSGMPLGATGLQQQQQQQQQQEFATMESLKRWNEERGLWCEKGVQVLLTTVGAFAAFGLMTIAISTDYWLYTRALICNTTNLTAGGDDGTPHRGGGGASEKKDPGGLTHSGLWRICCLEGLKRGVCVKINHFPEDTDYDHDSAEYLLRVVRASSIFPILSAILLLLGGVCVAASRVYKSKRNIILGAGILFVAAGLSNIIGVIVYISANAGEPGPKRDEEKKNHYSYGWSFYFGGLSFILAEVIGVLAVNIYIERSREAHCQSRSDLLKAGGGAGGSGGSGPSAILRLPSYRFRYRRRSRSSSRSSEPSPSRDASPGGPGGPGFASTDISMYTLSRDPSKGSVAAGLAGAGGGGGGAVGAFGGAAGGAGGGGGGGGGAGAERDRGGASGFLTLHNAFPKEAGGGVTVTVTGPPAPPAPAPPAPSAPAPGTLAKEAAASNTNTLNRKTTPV
row,SMILES,IC50 [µM]
1,"O=c1[nH]c2ccc(-c3cccc4cccnc34)cc2[nH]1 [Example 58, 5-(8-Quinolyl)-1,3-dihydrobenzimidazol-2-one]",3.16
2,"O=c1[nH]c2ccc(-c3c(Cl)cc(Cl)cc3Cl)cc2[nH]1 [Example 51, 5-(2,4,6-Trichlorophenyl)-1,3-dihydrobenzimidazol-2-one]",0.501
3,"COC(=O)c1cccc(C)c1-c1ccc2[nH]c(=O)[nH]c2c1 [Example 45, Methyl 3-methyl-2-(2-oxo-1,3-dihydrobenzimidazol-5-yl)benzoate]",0.251
4,"CC(C)(C)OC(=O)N1CCN(c2ccccc2-c2ccc3[nH]c(=O)[nH]c3c2)CC1 [Example 9, tert-Butyl 4-[2-(2-oxo-1,3-dihydrobenzimidazol-5-yl)phenyl]piperazine-1-carboxylate]",0.794
5,"Cc1c(C(=O)N2CCOCC2)cccc1-c1ccc2[nH]c(=O)[nH]c2c1 [Example 82, 5-[2-Methyl-3-(morpholine-4-carbonyl)phenyl]-1,3-dihydrobenzimidazol-2-one]",5.01
6,COc1cccc(C)c1-c1ccc2[nH]c(=O)[nH]c2c1 [Example 55],0.794
7,"Cc1cccc(C(F)(F)F)c1-c1ccc2[nH]c(=O)[nH]c2c1 [Example 57, 5-[2-Methyl-6-(trifluoromethyl)phenyl]-1,3-dihydrobenzimidazol-2-one]",0.631
8,"O=c1[nH]c2ccc(-c3ccccc3Br)cc2[nH]1 [Example 35, 5-(2-Bromophenyl)-1,3-dihydrobenzimidazol-2-one]",0.251
9,"O=c1[nH]c2ccc(-c3cccc(OCC(F)F)c3Cl)cc2[nH]1 [Example 112, 5-[2-Chloro-3-(2,2-difluoroethoxy)phenyl]-1,3-dihydrobenzimidazol-2-one]",0.126
10,"O=c1[nH]c2ccc(-c3c(Cl)cccc3OC3CC3)cc2[nH]1 [Example 90, 5-[2-Chloro-6-(cyclopropoxy)phenyl]-1,3-dihydrobenzimidazol-2-one]",0.251
11,"CC(C)Oc1cccc(F)c1-c1ccc2[nH]c(=O)[nH]c2c1 [Example 11, 5-(2-Fluoro-6-isopropoxy-phenyl)-1,3-dihydrobenzimidazol-2-one]",0.501
12,COc1cccc(OCc2ccc(F)cc2)c1-c1ccc2[nH]c(=O)[nH]c2c1 [Example 106],0.0398
13,"O=c1[nH]c2ccc(-c3cc(Cl)ccc3Cl)cc2[nH]1 [Example 18, 5-(2,5-Dichlorophenyl)-1,3-dihydrobenzimidazol-2-one]",0.251
14,"COc1cccc(OC(C)C)c1-c1ccc2[nH]c(=O)sc2c1 [Example 77, 6-(2-Isopropoxy-6-methoxy-phenyl)-3H-1,3-benzothiazol-2-one]",0.0126
15,"N#CCc1ccc(Cl)c(Cl)c1-c1ccc2[nH]c(=O)[nH]c2c1 [Example 122, 2-[3,4-Dichloro-2-(2-oxo-1,3-dihydrobenzimidazol-5-yl)phenyl]acetonitrile]",0.00794
16,"O=c1[nH]c2ccc(-c3cccc(OCC4CC4(F)F)c3Cl)cc2[nH]1 (racemic) [Example 111, (±)-5-[2-Chloro-3-[(2,2-difluorocyclopropyl)methoxy]phenyl]-1,3-dihydrobenzimidazol-2-one]",0.0501
17,"O=c1[nH]c2ccc(-c3ccccc3Oc3ccccc3)cc2[nH]1 [Example 24, 5-(2-Phenoxyphenyl)-1,3-dihydrobenzimidazol-2-one]",0.501
18,"COC(=O)c1cccc(-c2ccc3[nH]c(=O)[nH]c3c2)c1Cl [Example 43, Methyl 2-chloro-3-(2-oxo-1,3-dihydrobenzimidazol-5-yl)benzoate]",0.0316
19,"CC(Oc1cccc(Cl)c1-c1ccc2[nH]c(=O)[nH]c2c1)C(F)(F)F (racemic) [Example 118, (±)-5-[2-Chloro-6-(2,2,2-trifluoro-1-methyl-ethoxy)phenyl]-1,3-dihydrobenzimidazol-2-one]",0.0316
20,"COc1cc(OC(F)(F)F)ccc1-c1ccc2[nH]c(=O)[nH]c2c1 [Example 33, 5-[2-Methoxy-4-(trifluoromethoxy)phenyl]-1,3-dihydrobenzimidazol-2-one]",0.316
21,"COC(=O)c1cccc(Cl)c1-c1ccc2[nH]c(=O)[nH]c2c1 [Example 42, Methyl 3-chloro-2-(2-oxo-1,3-dihydrobenzimidazol-5-yl)benzoate]",0.501
22,"Cc1ccc(Cl)cc1-c1ccc2[nH]c(=O)[nH]c2c1 [Example 10, 5-(5-Chloro-2-methyl-phenyl)-1,3-dihydrobenzimidazol-2-one]",0.251
23,"N#Cc1c(Br)cccc1-c1ccc2[nH]c(=O)[nH]c2c1 [Example 63, 2-Bromo-6-(2-oxo-1,3-dihydrobenzimidazol-5-yl)benzonitrile]",0.631
24,"O=c1[nH]c2ccc(-c3c(OCC4CC4)cccc3OC(F)(F)F)cc2[nH]1 [Example 89, 5-[2-(Cyclopropylmethoxy)-6-(trifluoromethoxy)phenyl]-1,3-dihydrobenzimidazol-2-one]",0.00398
25,"O=C(c1ccc(Cl)c(-c2ccc3[nH]c(=O)[nH]c3c2)c1)N1CCCC1 [Example 84, 5-[2-Chloro-5-(pyrrolidine-1-carbonyl)phenyl]-1,3-dihydrobenzimidazol-2-one]",7.94

# Second part, the compound after the results:
row,IC50 [µM],SMILES
1,0.0398,"Cc1noc(-c2cccc(-c3ccc4[nH]c(=O)[nH]c4c3)c2C)n1 [Example 203, 5-[2-Methyl-3-(3-methyl-1,2,4-oxadiazol-5-yl)phenyl]-1,3-dihydrobenzimidazol-2-one]"
2,0.0398,"Cc1c(-c2ccc3[nH]c(=O)[nH]c3c2)cccc1-c1nc(C(F)(F)F)no1 [Example 205, 5-[2-Methyl-3-[3-(trifluoromethyl)-1,2,4-oxadiazol-5-yl]phenyl]-1,3-dihydrobenzimidazol-2-one]"
3,0.251,"O=c1[nH]c2ccc(-c3cccc(-c4nnco4)c3Br)cc2[nH]1 [Example 193, 5-[2-Bromo-3-(1,3,4-oxadiazol-2-yl)phenyl]-1,3-dihydrobenzimidazol-2-one]"
4,0.316,"Cc1c(CN2CCOCC2C)cccc1-c1ccc2[nH]c(=O)[nH]c2c1 (stereo in doubt) [Example 153, (3S)-5-[2-Methyl-3-[[3-methylmorpholin-4-yl]methyl]phenyl]-1,3-dihydrobenzimidazol-2-one]"
5,0.0631,"O=c1[nH]c2ccc(-c3c(Cl)cncc3Cl)cc2s1 [Example 134, 6-(3,5-Dichloro-4-pyridyl)-3H-1,3-benzothiazol-2-one]"
6,0.316,"O=c1[nH]c2ccc(-c3c(Cl)cccc3-c3ccc(F)nc3)cc2[nH]1 [Example 167, 5-[2-Chloro-6-(6-fluoro-3-pyridyl)phenyl]-1,3-dihydrobenzimidazol-2-one]"
7,2,"N#CCc1ccc(Cl)c(-c2ccc3[nH]c(=O)[nH]c3c2)c1Cl [Example 131, 2-[2,4-Dichloro-3-(2-oxo-1,3-dihydrobenzimidazol-5-yl)phenyl]acetonitrile]"
8,0.0316,"Cc1c(-c2ccc3[nH]c(=O)[nH]c3c2)cccc1-c1ncon1 [Example 206, 5-[2-Methyl-3-(1,2,4-oxadiazol-3-yl)phenyl]-1,3-dihydrobenzimidazol-2-one]"
9,0.0126,"O=c1[nH]c2ccc(-c3cccc(N4CCCCC4)c3Cl)cc2[nH]1 [Example 188, 5-[2-Chloro-3-(1-piperidyl)phenyl]-1,3-dihydrobenzimidazol-2-one]"
10,1,"Cc1c(CN2CCOCC2C)cccc1-c1ccc2[nH]c(=O)[nH]c2c1 (stereo in doubt) [Example 152, (3R)-5-[2-Methyl-3-[[3-methylmorpholin-4-yl]methyl]phenyl]-1,3-dihydrobenzimidazol-2-one]"
11,0.00316,"N#CCc1cccc(Cl)c1-c1ccc2[nH]c(=O)sc2c1 [Example 133, 2-[3-Chloro-2-(2-oxo-3H-1,3-benzothiazol-6-yl)phenyl]acetonitrile]"
12,2,"Cc1c(CN2CCOCC2)cccc1-c1ccc2[nH]c(=O)[nH]c2c1 [Example 148, 5-[2-Methyl-3-(morpholinomethyl)phenyl]-1,3-dihydrobenzimidazol-2-one]"
13,0.126,"O=c1[nH]c2ccc(-c3cccc(CN4CCOC(C(F)(F)F)C4)c3Cl)cc2[nH]1 (racemic) [Example 144, (±)-5-[2-Chloro-3-[[2-(trifluoromethyl)morpholin-4-yl]methyl]phenyl]-1,3-dihydrobenzimidazol-2-one]"
14,7.94,"CN1CCN(Cc2cccc(Cl)c2-c2ccc3[nH]c(=O)[nH]c3c2)CC1 [Example 146, 5-[2-Chloro-6-[(4-methylpiperazin-1-yl)methyl]phenyl]-1,3-dihydrobenzimidazol-2-one]"
15,0.0158,"N#Cc1ccc(OC(F)(F)F)c(-c2ccc3[nH]c(=O)[nH]c3c2)c1Cl [Example 208, 2-Chloro-3-(2-oxo-1,3-dihydrobenzimidazol-5-yl)-4-(trifluoromethoxy)benzonitrile]"
16,0.0631,"O=c1[nH]c2cc(F)c(-c3c(Cl)cccc3OC(F)(F)F)cc2s1 [Example 210, 6-[2-Chloro-6-(trifluoromethoxy)phenyl]-5-fluoro-3H-1,3-benzothiazol-2-one]"
17,0.398,"Cc1c(-c2ccc3[nH]c(=O)[nH]c3c2)cccc1-c1nnc(C2CC2)o1 [Example 197, 5-[3-(5-Cyclopropyl-1,3,4-oxadiazol-2-yl)-2-methyl-phenyl]-1,3-dihydrobenzimidazol-2-one]"
18,0.398,"O=c1[nH]c2ccc(-c3c(Cl)ccc(CN4CCCCC4)c3Cl)cc2[nH]1 [Example 140, 5-[2,6-Dichloro-3-(1-piperidylmethyl)phenyl]-1,3-dihydrobenzimidazol-2-one]"
19,0.0631,"Cc1cccc(-c2ccccc2)c1-c1ccc2[nH]c(=O)[nH]c2c1 [Example 179, 5-(2-Methyl-6-phenyl-phenyl)-1,3-dihydrobenzimidazol-2-one]"
20,0.0251,"CC(C)(C#N)c1cccc(Cl)c1-c1ccc2[nH]c(=O)[nH]c2c1 [Example 127, 2-[3-Chloro-2-(2-oxo-1,3-dihydrobenzimidazol-5-yl)phenyl]-2-methyl-propanenitrile]"
21,2.51,"Cc1c(-c2ccc3[nH]c(=O)sc3c2)cccc1-c1ncno1 [Example 200, 6-[2-Methyl-3-(1,2,4-oxadiazol-5-yl)phenyl]-3H-1,3-benzothiazol-2-one]"
